Source: paper PMC6366404, “4-(3-Nitrophenyl)thiazol-2-ylhydrazone derivatives as antioxidants and selective hMAO-B inhibitors: synthesis, biological activity and computational analysis” (Journal of Enzyme Inhibition and Medicinal Chemistry, 2019)
Like-named read-outs stand apart in the source and are kept apart here.

How the values were obtained:
hMAO-B [1] = target: T1, hMAO-B (Homo sapiens, UniProt P27338); assay: hMAO-B inhibition, IC50 determination (kynuramine fluorescence); assay type: biochemical; settings: for Selectivity index (SI) for the MAO-B isoform: ratio (IC50 hMAO-A)/(IC50 hMAO-B)
T1 sequence (P27338 1-520): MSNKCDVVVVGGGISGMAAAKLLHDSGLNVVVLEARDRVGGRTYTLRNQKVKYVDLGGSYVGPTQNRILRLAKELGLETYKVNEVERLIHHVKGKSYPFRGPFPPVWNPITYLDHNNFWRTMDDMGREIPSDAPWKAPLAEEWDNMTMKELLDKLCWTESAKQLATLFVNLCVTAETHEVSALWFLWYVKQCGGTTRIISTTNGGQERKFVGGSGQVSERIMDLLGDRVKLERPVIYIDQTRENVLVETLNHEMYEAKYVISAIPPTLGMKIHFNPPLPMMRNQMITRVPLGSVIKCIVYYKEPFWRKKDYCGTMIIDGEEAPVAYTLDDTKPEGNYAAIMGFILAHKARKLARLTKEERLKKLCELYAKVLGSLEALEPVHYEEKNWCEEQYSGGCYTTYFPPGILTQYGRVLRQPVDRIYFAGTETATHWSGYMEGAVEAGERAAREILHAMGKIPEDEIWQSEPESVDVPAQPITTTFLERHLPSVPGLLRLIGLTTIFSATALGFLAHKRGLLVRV
Description: (§1) The procedure for the measurement of IC50 values for the inhibition of MAO has been reported. The enzyme reactions were prepared to a volume of […] in potassium phosphate buffer at pH 7.4 (100 mM, made isotonic with KCl) and contained kynuramine (50 μM) and the test inhibitors (0.003–100 µM). Stock solutions of the test inhibitors were prepared in DMSO and added to the reactions to yield 4% DMSO. The enzyme reactions were initiated with the addition of recombinant hMAO-A (0.0075 mg protein/mL) or hMAO-B (0.015 mg protein/mL) and incubated for 20 min at 37 °C. At endpoint, the reactions were terminated with 80 µL sodium hydroxide (2N) and the fluorescence of 4-hydroxyquinoline, the oxidation product of kynuramine, was measured (λex = 310; λem = 400 nm)[33]. 4-Hydroxyquinoline was quantified with a calibration curve (0.047–1.56 μM) and the rate of 4-hydroxyquinoline formation was fitted to the one site competition model of the Prism 5 software package (GraphPad). From the resulting sigmoidal plots, the IC50 values were estimated. All enzyme reactions were carried out in triplicate and IC50 values are given as the mean ± standard deviation (SD).

[2] = Phosphomolybdenum assay (PhosphoMo), total antioxidant activity; settings: concentration at which absorbance was 0.5
Description: The total antioxidant activity of the compounds was evaluated by phosphomolybdenum method according to Zengin et al.[35]. The sample solution (0.3 ml) was combined with 3 ml of reagent solution (0.6 M sulphuric acid, 28 mM sodium phosphate, and 4 mM ammonium molybdate) and the absorbance was recorded at 695 nm after 90 min incubation at 95 °C. The EC50, which is the effective concentration at which the absorbance was 0.5, was calculated for each compound and trolox, as a reference drug.

[3] = Cupric ion reducing activity (CUPRAC)
Description: The cupric ion reducing activity (CUPRAC) was determined according to the method of Zengin et al.[38]. The sample solution (0.5 ml) was added to a premixed reaction mixture containing CuCl2 (1 ml, 10 mM), neocuproine (1 ml, 7.5 mM), and NH4Ac buffer (1 ml, 1 M, pH 7.0). Similarly, a blank was prepared by adding the sample solution (0.5 ml) to a premixed reaction mixture (3 ml) without CuCl2. The absorbances of the sample and blank were subsequently recorded at 450 nm after 30 min incubation at room temperature. The absorbance of the blank was subtracted from that of the sample.
(§2) The FRAP (ferric reducing antioxidant power) assay was carried out as described by Zengin et al.[38]. The sample solution (0.1 ml) was added to the premixed FRAP reagent (2 ml) containing acetate buffer (0.3 M, pH 3.6), 2,4,6-tris(2-pyridyl)-s-triazine (10 mM) in 40 mM HCl, and ferric chloride (20 mM) in a ratio of 10/1/1 (v/v/v). The absorbance of the sample was subsequently recorded at 593 nm after 30 min incubation at room temperature. Both results were expressed as EC50 values, using trolox as a reference drug.

[4] = ABTS radical cation scavenging activity
Description: (§3) The scavenging activity of the compounds on the ABTS radical cation [ABTS,2,2′-azino-bis(3-ethylbenzothiazoline)-6-sulphonic acid] was measured according to the method of Zengin et al.[37] with slight modification. Briefly, ABTS^+ was produced directly by reacting a 7 mM ABTS solution with 2.45 mM potassium persulphate and allowing the mixture to incubate for 12–16 h in the dark at room temperature. Prior to initiating the assay, the ABTS solution was diluted with methanol to an absorbance of 0.700 ± 0.02 at 734 nm. The sample solution (1 ml) was added to the ABTS^+ solution (2 ml) and mixed, and the sample absorbance was recorded at 734 nm after 30 min incubation at room temperature. The corresponding IC50 value, which is the effective concentration at which 50% of DPPH/ABTS radicals are scavenged, was calculated for each compound and trolox, as a reference drug.

[5] = FRAP (ferric reducing antioxidant power) assay
Description: as §2

[6] = DPPH radical scavenging activity
Description: The radical scavenging effect of the compounds using the 1,1-diphenyl-2-picrylhydrazyl (DPPH) radical was estimated according to Zengin et al.[36]. The sample solution (1 ml) was added to 4 ml of a 0.004% solution of DPPH in methanol. The sample absorbance was recorded at 517 nm after 30 min incubation at room temperature in the dark.
as §3

[7] = Metal chelating activity on ferrous ions; settings: ferrozine
Description: Metal chelating activity on ferrous ions was evaluated by the method previously described. Briefly, the sample solution (2 ml) was added to FeCl2 solution (0.05 ml, 2 mM). The reaction was initiated by the addition of 5 mM ferrozine (0.2 ml). Similarly, a blank was prepared by adding the sample solution (2 ml) to FeCl2 solution (0.05 ml, 2 mM) and water (0.2 ml) without ferrozine. Then, the sample and blank absorbance were recorded at 562 nm after incubation for 10 min at room temperature. The absorbance of the blank was subtracted from that of the sample. EDTA was used as a positive control and this property was expressed as IC50 value for each compound.

hMAO-A = target: T2, hMAO-A (Homo sapiens, UniProt P21397); assay: hMAO-A inhibition, IC50 determination (kynuramine fluorescence); assay type: biochemical; settings: recombinant hMAO-A, kynuramine 50 μM, 20 min, 37 °C; read-out: IC50 hMAO-A
T2 sequence (P21397 1-527): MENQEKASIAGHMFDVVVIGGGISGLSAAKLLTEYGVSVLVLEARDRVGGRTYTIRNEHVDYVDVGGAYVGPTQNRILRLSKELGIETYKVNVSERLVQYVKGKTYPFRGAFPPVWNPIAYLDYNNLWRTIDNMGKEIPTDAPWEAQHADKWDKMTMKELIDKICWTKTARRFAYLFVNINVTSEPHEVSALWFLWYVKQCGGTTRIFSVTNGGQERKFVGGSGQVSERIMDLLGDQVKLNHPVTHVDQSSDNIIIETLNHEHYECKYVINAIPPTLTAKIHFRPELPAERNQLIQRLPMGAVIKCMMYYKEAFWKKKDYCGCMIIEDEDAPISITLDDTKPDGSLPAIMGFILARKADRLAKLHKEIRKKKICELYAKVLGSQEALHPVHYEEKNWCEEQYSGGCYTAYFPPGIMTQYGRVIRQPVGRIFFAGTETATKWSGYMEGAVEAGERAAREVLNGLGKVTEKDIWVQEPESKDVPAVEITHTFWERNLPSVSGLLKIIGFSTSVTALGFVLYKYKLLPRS
Description: as §1

hMAO-B [8] = target: T1, hMAO-B; assay: Reversibility of MAO-B inhibition by dialysis; assay type: biochemical
Description: Stock solutions of the test compounds were prepared in DMSO and added to the incubations to yield 4% DMSO. The samples were dialyzed for 24 h at 4 °C in 80 ml of dialysis buffer using Slide-A-Lyzer® dialysis cassettes (Thermo Scientific) with a molecular weight cut-off of 10,000 and a sample volume capacity of 0.5–3 ml. The dialysis buffer was replaced at 3 and 7 h after the start of dialysis. Following dialysis, the dialysis samples were diluted twofold with the addition of kynuramine to yield a kynuramine concentration and inhibitor concentration of 50 µM and 2 × IC50, respectively. The reactions (500 µL) were incubated for 20 min at 37 °C and terminated with NaOH (400 μL, 2 N) and water (1000 µL). The fluorescence of 4-hydroxyquinoline in these samples was measured as described for the IC50 determination above. […] Undialysed mixtures of MAO-B and the test inhibitors were maintained at 4 °C for 24 h and diluted and assayed as above. All reactions were carried out in triplicate and the residual enzyme catalytic rates are expressed as mean ± SD.
Reversibility of MAO inhibition is an important factor to consider when evaluating the inhibition properties of potential inhibitors. Irreversible MAO inhibitors, particularly of the MAO-A isoform, are associated with dangerous adverse effects such as the cheese reaction, which occurs when irreversible MAO-A inhibitors are taken with tyramine-rich food[51]. […] The samples were diluted twofold and the residual MAO-B activity was measured. For reversible inhibition, dialysis is expected to reverse inhibition by the test inhibitors and restore enzyme activity to the level of the negative control. […] A final experiment consisted of incubations containing MAO-B and tested inhibitors which were not dialyzed, but maintained for 24 h.

hMAO-B [9] = target: T1, hMAO-B; assay: Lineweaver-Burk plots, mode of inhibition and Ki; assay type: biochemical
Description: To construct Lineweaver–Burk plots, the enzyme reactions were carried out to a volume of 500 µL and the concentration of MAO-B was 0.015 mg protein/mL. All enzyme reactions and activity measurements were carried out as described above for the dialysis experiments. The first plot was constructed in the absence of inhibitor, while the remaining five plots were constructed in the presence of the following concentrations: ¼ × IC50, ½ × IC50, ¾ × IC50, 1 × IC50 and 1¼ × IC50. For each line, kynuramine was used at concentrations of 15–250 μM. The Ki value was estimated from a plot of the slopes of the Lineweaver–Burk plots versus inhibitor concentration (x-axis intercept equals –Ki).
To provide further support for the reversibility of MAO-B inhibition by compounds 4 and 37, a set of Lineweaver–Burk plots was constructed for each inhibitor at the following inhibitor concentrations: ¼ × IC50, ½ × IC50, ¾ × IC50, 1 × IC50, and 1¼ × IC50. The substrate, kynuramine, was used at 15–250 µM for each line. […] The lines of the plots intersect on the y-axis and a replot of the slopes versus inhibitor concentration yields a linear line, from which the enzyme-inhibitor dissociation constant (Ki) was estimated (Ki = −x-axis intercept).

[10] = recombinant hMAO-B, kynuramine 50 μM, 20 min, 37 °C, read-out: IC50 hMAO-B

SMILES | IC50 (hMAO-B [1]) | Selectivity index (SI) for the MAO-B isoform (hMAO-B [1]) | EC50 [2] | EC50 [3] | melting point | IC50 [4] | EC50 [5] | IC50 [6] | IC50 [7] | IC50 (hMAO-B [1]; [10]) | other results
CC(=NNc1nc(-c2cccc([N+](=O)[O-])c2)cs1)c1ccccc1 [Compound 11, 1-(4-(3-Nitrophenyl)thiazol-2-yl)-2-(1-phenylethylidene)hydrazine] | 7.1 nM | 666 | 1.46 ± 0.08 mM | 550 ± 20 µM | 261 to 263 °C | 1.04 ± 0.01 mM | 590 ± 10 µM | 1.28 ± 0.01 mM | > 5 mM |  | 
CC(=NNc1nc(-c2cccc([N+](=O)[O-])c2)cs1)c1ccccc1[N+](=O)[O-] [Compound 13, 1-(1-(2-Nitrophenyl)ethylidene)-2-(4-(3-nitrophenyl)thiazol-2-yl)hydrazine] |  | 3477 | 3.1 ± 0.36 mM | 400 ± 10 µM |  | 1.04 ± 0.01 mM | 450 ± 40 µM | 1.59 ± 0.01 mM | > 5 mM | 4.4 nM | 
CC(=O)c1ccc(C(C)=NNc2nc(-c3cccc([N+](=O)[O-])c3)cs2)cc1 [Compound 31, 1-(1-(4-Acetylphenyl)ethylidene)-2-(4-(3-nitrophenyl)thiazol-2-yl)hydrazine] |  | 5.4 |  |  | 205 to 207 °C |  |  |  |  | 42100 nM | 
CC(=NNc1nc(-c2cccc([N+](=O)[O-])c2)cs1)c1ccc2ccc3ccccc3c2c1 [Compound 34, 1-(4-(3-Nitrophenyl)thiazol-2-yl)-2-(1-(phenanthren-3-yl)ethylidene)hydrazine] |  |  |  |  | 255 to 257 °C |  |  |  |  | 80500 nM | IC50 (hMAO-A): 101 µM
Nc1cccc(-c2csc(N/N=C/c3cccs3)n2)c1 [Compound 37] | 2670 nM |  |  |  |  |  |  |  |  |  | Reversibility of MAO-B inhibition (hMAO-B [8]; dialysis 24 h): fully reversible; Residual MAO-B activity, undialysed mixtures (hMAO-B [8]; inhibitor at 4 × IC50, not dialyzed, maintained 24 h): 20%; Residual MAO-B activity after dialysis (hMAO-B [8]; inhibitor at 4 × IC50, preincubated 15 min, dialyzed 24 h, relative to negative control): 97%; Ki (hMAO-B [9]): 1840 nM; Mode of MAO-B inhibition (hMAO-B [9]; Lineweaver-Burk plots): competitive
CC(=NNc1nc(-c2cccc([N+](=O)[O-])c2)cs1)c1ccsc1 [Compound 5, 1-(4-(3-Nitrophenyl)thiazol-2-yl)-2-(1-(thiophen-3-yl)ethylidene)hydrazine] | 2.5 nM |  | 1.16 ± 0.03 mM | 480 ± 30 µM |  | 1.05 ± 0.02 mM | 520 ± 20 µM | 1.21 ± 0.01 mM | > 5 mM |  | 
O=[N+]([O-])c1cccc(-c2csc(NN=Cc3ccco3)n2)c1 [Compound 1, 1-(Furan-2-ylmethylene)-2-(4-(3-nitrophenyl)thiazol-2-yl)hydrazine] |  |  |  |  | 213 to 215 °C |  |  |  |  | 95 nM | 
